# Laboratory results taken from patent publication US8987246B2, “Methods for treatment of autism spectrum disorder” (The Johns Hopkins University, priority 2012, dated 2015).
# What was measured:
# [1] = tested on: subjects with Smith-Lemli-Opitz Syndrome; experiment: Retrospective analysis of rate of change in current state ADI scores before and after cholesterol supplementation; format: in vivo, human; conditions: for Cholesterol effect (regression coefficient) on average change in ADI Nonverbal score per year / Cholesterol effect (regression coefficient) on average change in ADI Repetitive score per year / Cholesterol effect (regression coefficient) on average change in ADI Social score per year / Cholesterol effect (regression coefficient) on average change in ADI Verbal score per year: negative = improvement
# Procedure: Cholesterol Supplementation Improved Behavioral Symptoms and May Improve ASD Features in SLOS. The Autism Diagnostic Interview was conducted with 6 SLOS individuals, and data was obtained for 3 “current state” time-points: age 4-5, just before starting cholesterol supplementation, and present while on cholesterol. The change in the score of three ADI algorithm domains—Social, Communication, and Restricted, Repetitive, and Stereotyped Behavior—was estimated. Because the time between visits varied from subject to subject, a model was developed to control for age and time lapse between tests. A detailed description of the model and outcomes is included in Example 1. In summary, on the Social domain, the individuals on cholesterol supplementation improved by an average of 7.07 points more than children not on supplementation (p value 0.008). The ADI Communication domain has a non-verbal score that is completed for all individuals and a verbal score that is completed in those individuals who have phrase speech. The value for the non-verbal score is within the verbal total score. In the non-verbal children, the language domain score improved 2.51, p value 0.04. […] In the Repetitive domain, the children worsened an average of 1.54 points (p value<0.001) (Example 1).
# The variables listed in the analysis of the primary outcomes are below. i=1, . . . , 6 children, j=2, 3 visits • socialchij=average change in social measure per year for child i between age at visit j and age at visit j−1. (More specifically, socialchij is social score at visit j minus social score at visit j−1, divided by the number of years between visits j and j−1.) • verbalchij=average change in verbal measure per year for child i between age at visit j and age at visit j−1. • nonverbalchij=average change in nonverbalchij measure per year for child i between age at visit j and age at visit j−1. • repetchij=average change in repetitive measure per year for child i between age at visit j and age at visit j−1.
# ageij=age of child i at visit j at which measure was performed
# agedifij=number of years between visit j and visit j−1
# agecholij=age at which cholesterol supplementation began for child i
# cholij=1 if cholesterol supplementation has occurred at prior to visit j for child i.
# Note that the large improvements are consistent with large negative values. In other words, if a child has a large improvement in social score between visits j−1 and j, this will be reflected as a large negative value for socialchij.
# So, the idea is to model the average change in scores before and after supplementation, adjusting for age, the number of years between visits, and the age at which supplementation occurred. To do this, our linear model for “social” is socialchij=β0i+[…]+β2agedifij+β3agecholij+β4cholij+eij
# We use a linear regression model that allows for correlation between observations from the same individual. Using this model, we estimate the […] parameters in the model, which measure the direction and magnitude of the association between social score change and each of the covariates (i.e., age, age difference, age at cholesterol, and cholesterol). The same model was fit for each of the four outcomes. The table below gives the estimated coefficients for each of the 4 primary outcome variables.
# individuals with SLOS = conditions: cited from earlier work
# [2] = 6 SLOS children, model with age, age difference, age at cholesterol, cholesterol
# [3] = model leaving out age at cholesterol
# [4] = model leaving out age difference from last visit
smiles,measurement,setting,value
"CC(C)CCC[C@@H](C)[C@H]1CC[C@H]2[C@@H]3CC=C4C[C@@H](O)CC[C@]4(C)[C@H]3CC[C@]12C [Cholesterol, cholesterol]",Cholesterol effect (regression coefficient) on average change in ADI Nonverbal score per year,[1]; [2],−2.51
same,Cholesterol effect (regression coefficient) on average change in ADI Repetitive score per year,[1]; [2],1.54
same,Cholesterol effect (regression coefficient) on average change in ADI Social score per year,[1]; [2],−7.07
same,Cholesterol effect (regression coefficient) on average change in ADI Verbal score per year,[1]; [2],−6.97
same,ADI Repetitive domain: average worsening,"[1]; SLOS children on cholesterol supplementation, p value<0.001",1.54 points
same,ADI Social domain: average improvement more than children not on supplementation,"[1]; SLOS individuals on cholesterol supplementation, p value 0.008",7.07 points
same,"Association of cholesterol supplementation with social, verbal and non-verbal scores (correlation matrix, FIG. 1)","[1]; children who have already begun supplementation, not accounting for age or other factors",scores tend to be lower on average
same,Social and communication abilities with cholesterol supplementation,[1]; in SLOS,improvement was found
same,Cholesterol effect (regression coefficient) on average change in ADI Nonverbal score per year,[1]; [3],−2.56
same,Cholesterol effect (regression coefficient) on average change in ADI Repetitive score per year,[1]; [3],1.23
same,Cholesterol effect (regression coefficient) on average change in ADI Social score per year,[1]; [3],−5.14
same,Cholesterol effect (regression coefficient) on average change in ADI Verbal score per year,[1]; [3],−6.77
same,Cholesterol effect (regression coefficient) on average change in ADI Nonverbal score per year,[1]; [4],−2.05
same,Cholesterol effect (regression coefficient) on average change in ADI Repetitive score per year,[1]; [4],1.45
same,Cholesterol effect (regression coefficient) on average change in ADI Social score per year,[1]; [4],−6.97
same,Cholesterol effect (regression coefficient) on average change in ADI Verbal score per year,[1]; [4],−4.14
same,ADI language domain (non-verbal) score improvement,"[1]; non-verbal SLOS children on cholesterol supplementation, p value 0.04",2.51
same,ADI verbal score average change (given as increase),"[1]; verbal SLOS children on cholesterol supplementation, p value<0.001",6.97 points
same,Developmental status over time with cholesterol supplementation,"individuals with SLOS; SLOS, one group",did not improve
same,"Growth, speech articulation and neurodevelopmental status with cholesterol supplementation","individuals with SLOS; SLOS, some reports",improves
same,"Irritability, sleep disturbance and obsessive compulsive behavior with cholesterol supplementation",individuals with SLOS; individuals with SLOS,improve with cholesterol supplementation
